The experiment concerns the target EP2 (Homo sapiens, UniProt P43116). The experiment can be described thus: EP2 cAMP. Type of experiment: cell-based. The text has this: U.S. patent application Ser. No. 11/553,143, filed on Oct. 26, 2006, incorporated by reference herein, describes the methods used to obtain the in vitro data in the table below.

Chain of EP2 (P43116 whole entry): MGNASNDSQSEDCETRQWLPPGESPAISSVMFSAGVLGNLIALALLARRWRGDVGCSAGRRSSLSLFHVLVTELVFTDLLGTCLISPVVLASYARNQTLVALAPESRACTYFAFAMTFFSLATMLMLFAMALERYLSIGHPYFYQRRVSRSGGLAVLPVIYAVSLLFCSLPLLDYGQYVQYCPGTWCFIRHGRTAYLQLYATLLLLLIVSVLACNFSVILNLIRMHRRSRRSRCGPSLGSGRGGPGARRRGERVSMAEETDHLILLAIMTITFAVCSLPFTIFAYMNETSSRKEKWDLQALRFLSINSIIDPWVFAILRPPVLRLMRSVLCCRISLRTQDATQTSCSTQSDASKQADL

The term EC50 denotes the concentration giving half of the maximal effect. `CCCCCC(O)c1ccc(N2C(=O)CSC2CCCc2ccc(C(=O)O)s2)cc1` (centres unmarked): the EC50 came out at 515 nM.
`CCCCCC(O)c1ccc(N2C(=O)COC2CCCc2ccc(C(=O)O)s2)cc1` (centres unmarked) had an EC50 of 0.06 nM.

For the origin of these results see US8003678B2, “Therapeutic substituted thiazolidinones, oxazolidinones, and related compounds” (Allergan, Inc., priority 2006, dated 2011).
